# Laboratory results as given in US6914045B2, “Glycopeptide antibiotics” (Wyeth Holdings Corporation, priority 2001, dated 2005).
# How the values were obtained:
# Assay in all cases: in vitro antibacterial evaluation, MIC by broth dilution
# Type in all cases: cell-based
# Enterococcus sp. = settings: broth dilution, 18 hours at 35° C.
# In short: (§1)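 Read-out: the lowest concentration at which the test strain fails to grow. Serial dilutions (64-0.06 μg/mL) in Muller-Hinton II […], 5×10^5 CFU/mL inoculum, NCCLS M7-A2 procedure.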
# Escherichia coli = tested on: Escherichia coli
# In short: as §1
# Staphylococcus sp. = settings: broth dilution, 18 hours at 35° C.; for MIC Staphylococcus aureus (GC 1131): strain GC 1131
# In short: as §1
# Streptococcus sp. = settings: broth dilution, 18 hours at 35° C.
# In short: as §1
compound,measurement,setting,value
Cc1cc(C2OCC3OC(OC4C(CO)OC(Oc5ccc(CC6NC(=O)C(C(C)c7ccccc7)NC(=O)CNC(=O)C(CO)NC(=O)C(C(O)C7CNC(=N)N7C7OC(CO)C(O)C(O)C7O)NC(=O)C(C(O)C7CNC(=N)N7)NC6=O)cc5)C(O)C4O)C(O)C(O)C3O2)ccc1[N+](=O)[O-] (stereo not drawn) [Example 151],MIC Enterococcus avium (GC 4558),Enterococcus sp.; Enterococcus avium (GC 4558),32 µg/mL
same,MIC Enterococcus faecalis (ATCC 29212),Enterococcus sp.; Enterococcus faecalis (ATCC 29212),32 µg/mL
same,MIC Enterococcus faecalis (GC 2242),Enterococcus sp.; Enterococcus faecalis (GC 2242),16 µg/mL
same,MIC Enterococcus faecalis (GC 2691),Enterococcus sp.; Enterococcus faecalis (GC 2691),32 µg/mL
same,MIC Enterococcus faecalis (GC 3059),Enterococcus sp.; Enterococcus faecalis (GC 3059),32 µg/mL
same,MIC Enterococcus faecalis (GC 4552),Enterococcus sp.; Enterococcus faecalis (GC 4552),32 µg/mL
same,MIC Enterococcus faecalis (GC 4553),Enterococcus sp.; Enterococcus faecalis (GC 4553),32 µg/mL
same,MIC Enterococcus faecalis (GC 4554),Enterococcus sp.; Enterococcus faecalis (GC 4554),32 µg/mL
same,MIC Enterococcus faecalis (GC 6189),Enterococcus sp.; Enterococcus faecalis (GC 6189),64 µg/mL
same,MIC Enterococcus faecium (GC 2243),Enterococcus sp.; Enterococcus faecium (GC 2243),32 µg/mL
same,MIC Enterococcus faecium (GC 4556),Enterococcus sp.; Enterococcus faecium (GC 4556),32 µg/mL
same,MIC Enterococcus faecium (GC 4557),Enterococcus sp.; Enterococcus faecium (GC 4557),8 µg/mL
same,MIC Enterococcus faecalis (ATCC 29212),Enterococcus sp.; strain ATCC 29212,32 µg/mL
same,MIC Enterococcus faecalis (GC 2242),Enterococcus sp.; strain GC 2242,16 µg/mL
same,MIC Enterococcus faecium (GC 2243),Enterococcus sp.; strain GC 2243,32 µg/mL
same,MIC Enterococcus faecalis (GC 2691),Enterococcus sp.; strain GC 2691,32 µg/mL
same,MIC Enterococcus faecalis (GC 3059),Enterococcus sp.; strain GC 3059,32 µg/mL
same,MIC Enterococcus faecalis (GC 4552),Enterococcus sp.; strain GC 4552,32 µg/mL
same,MIC Enterococcus faecalis (GC 4553),Enterococcus sp.; strain GC 4553,32 µg/mL
same,MIC Enterococcus faecalis (GC 4554),Enterococcus sp.; strain GC 4554,32 µg/mL
same,MIC Enterococcus faecium (GC 4556),Enterococcus sp.; strain GC 4556,32 µg/mL
same,MIC Enterococcus faecium (GC 4557),Enterococcus sp.; strain GC 4557,8 µg/mL
same,MIC Enterococcus avium (GC 4558),Enterococcus sp.; strain GC 4558,32 µg/mL
same,MIC Enterococcus faecalis (GC 6189),Enterococcus sp.; strain GC 6189,64 µg/mL
same,MIC Escherichia coli (ATCC 25922),"Escherichia coli; strain ATCC 25922, 18 hours at 35° C.",>64 µg/mL
same,MIC Escherichia coli (GC 4559),"Escherichia coli; strain GC 4559, 18 hours at 35° C.",>64 µg/mL
same,MIC Escherichia coli (GC 4560),"Escherichia coli; strain GC 4560, 18 hours at 35° C.",2 µg/mL
same,MIC Staphylococcus aureus (GC 1131),Staphylococcus sp.; inoculum 5×10^5 CFU/mL,8 µg/mL
same,MIC Staphylococcus aureus (ATCC 29213),Staphylococcus sp.; strain ATCC 29213,8 µg/mL
same,MIC Staphylococcus aureus (GC 1131),Staphylococcus sp.,8 µg/mL
same,MIC Staphylococcus aureus (GC 3051),Staphylococcus sp.; strain GC 3051,8 µg/mL
same,MIC Staphylococcus aureus (GC 3053),Staphylococcus sp.; strain GC 3053,16 µg/mL
same,MIC Staphylococcus aureus (GC 4541),Staphylococcus sp.; strain GC 4541,4 µg/mL
same,MIC Staphylococcus aureus (GC 4542),Staphylococcus sp.; strain GC 4542,8 µg/mL
same,MIC Staphylococcus aureus-SMITH (GC 4543),Staphylococcus sp.; strain GC 4543,8 µg/mL
same,MIC Staphylococcus aureus (GC 4544),Staphylococcus sp.; strain GC 4544,8 µg/mL
same,MIC Staphylococcus aureus (GC 4545),Staphylococcus sp.; strain GC 4545,4 µg/mL
same,MIC Staphylococcus haemolyticus (GC 4546),Staphylococcus sp.; strain GC 4546,2 µg/mL
same,MIC Coagulase Negative Staphylococcus (GC 4547),Staphylococcus sp.; strain GC 4547,4 µg/mL
same,MIC Coagulase Negative Staphylococcus (GC 4548),Staphylococcus sp.; strain GC 4548,4 µg/mL
same,MIC Coagulase Negative Staphylococcus (GC 4549),Staphylococcus sp.; strain GC 4549,2 µg/mL
same,MIC Coagulase Negative Staphylococcus (GC 4551),Staphylococcus sp.; strain GC 4551,8 µg/mL
same,MIC Coagulase Negative Staphylococcus (GC 6257),Staphylococcus sp.; strain GC 6257,2 µg/mL
same,MIC Staphylococcus aureus-SMITH (GC 4543),Staphylococcus sp.; strain SMITH GC 4543,8 µg/mL
same,MIC Streptococcus agalactiae (GC 4564),Streptococcus sp.; Streptococcus agalactiae (GC 4564),4 µg/mL
same,MIC Streptococcus pneumoniae (ATCC 6301),Streptococcus sp.; Streptococcus pneumoniae (ATCC 6301),1 µg/mL
same,MIC Streptococcus pneumoniae (GC 1894),Streptococcus sp.; Streptococcus pneumoniae (GC 1894),0.5 µg/mL
same,MIC Streptococcus pneumoniae (GC 4565),Streptococcus sp.; Streptococcus pneumoniae (GC 4565),1 µg/mL
same,MIC Streptococcus pyogenes (GC 4563),Streptococcus sp.; Streptococcus pyogenes (GC 4563),2 µg/mL
same,MIC Streptococcus pneumoniae (ATCC 6301),Streptococcus sp.; strain ATCC 6301,1 µg/mL
same,MIC Streptococcus pneumoniae (GC 1894),Streptococcus sp.; strain GC 1894,0.5 µg/mL
same,MIC Streptococcus pyogenes (GC 4563),Streptococcus sp.; strain GC 4563,2 µg/mL
same,MIC Streptococcus agalactiae (GC 4564),Streptococcus sp.; strain GC 4564,4 µg/mL
same,MIC Streptococcus pneumoniae (GC 4565),Streptococcus sp.; strain GC 4565,1 µg/mL
